According to patent US5677322A, “Maillard reaction inhibitor” (Otsuka Pharmaceutical Co., Ltd., priority 1993, dated 1997):

These molecules were tested on Lysozyme (assay: Inhibition of Maillard reaction: suppression of lysozyme dimer formation (lysozyme + fructose, SDS-PAGE)). Settings: inhibition ratio of test compound to aminoguanidine (positive control); lysozyme 10 mg/ml, fructose 100 mM, 0.2M sodium phosphate pH 7.4, 37° C., 3 days; dimer amount by SDS-PAGE.
Assay type: biochemical
Procedure: Lysozyme and fructose were dissolved in a buffer solution of 0.2M sodium phosphate (pH 7.4) to respectively give concentrations of 10 mg/ml and 100 mM. After incubating at 37° C. for 3 days, a definite amount of the mixture was taken out and electrophoresed with the use of SDS-PAGE. After the completion of the electrophoresis, the gel was stained with 0.2% Coomassie Brilliant Blue R-250 and the amount of the dimer thus formed was determined.
Each of the test compounds was added before the initiation of the incubation and the effect of suppressing the formation of the dimer was examined at various concentrations, whereby the IC50 value was obtained. As a positive control, aminoguanidine, which is a known glycation inhibitor, was employed and the inhibition ratio of the test compound to aminoguanidine (IC50 of aminoguanidine/IC50 of test compound) was calculated.
In the case of “2-(4-Acetoamidobenzenesulfonohydrazono)-5-(4-benzyloxybenzyl)imidazolidin- 4-one [Test compound 76]”, the “IC50 of aminoguanidine/IC50 of test compound” value (shortened to “IC50”) was 7.9.
“2-Cyclohexylmethylenehydrazono-5-(N-phenylcarbamoylmethyl)thiazolidin-4-one [Test compound 83]” was tested, and the “IC50” value was 0.6.
For “2-Isopropylidenehydrazino-4-(3-pyridyl)thiazole [Test compound 89]”, the “IC50” value was 53.
In the case of “2-Isopropylidenehydrazino-4-methylthiazole [Test compound 23]”, the “IC50” value was 3.5.
With “2-Isopropylidenehydrazono-5(R)-(N-phenylcarbamoylmethyl)thiazolidin-4-one [Test compound 109]” the “IC50” value was 2.8.
In the case of “2-Isopropylidenehydrazono-5(S)-(N-phenylcarbamoylmethyl)thiazolidin-4-one [Test compound 110]”, the “IC50” value was 3.1.
For “2-Isopropylidenehydrazono-5-(N-morpholinocarbamoylmethyl)thiazolidin-4-one [Test compound 69]”, the “IC50” value was 1.1.
With “2-Isopropylidenehydrazono-5-[N-(1-naphthyl)carbamoylmethyl]thiazolidin-4-one [Test compound 59]” the “IC50” value was 0.8.
“2-Isopropylidenehydrazono-5-[N-(2-methoxycarbonyl-4-methylphenyl)carbamoylmethyl]imidazolidin-4-one [Test compound 96]” was tested, and the “IC50” value was 3.9.
For “2-Isopropylidenehydrazono-5-[N-(2-methyl-5-methoxycarbonylphenyl)carbamoylmethyl]thiazolidin-4-one [Test compound 84]”, the “IC50” value was 3.5.
For “2-Isopropylidenehydrazono-5-[N-(3,4,5-trichlorophenyl)carbamoylmethyl]thiazolidin-4-one [Test compound 57]”, the “IC50” value was 0.8.
In the case of “2-Isopropylidenehydrazono-5-[N-(4-methylthiophenyl)carbamoylmethyl]thiazolidin-4-one [Test compound 55]”, the “IC50” value was 5.3.
“2-Isopropylidenehydrazono-5-{N-[1-methoxycarbonyl-2-(3-indolyl)ethyl]carbamoylmethyl}thiazolidin-4-one [Test compound 102]” was tested, and the “IC50” value was 4.3.
“4-[4-(4-Chlorobenzyloxy)phenyl]-2-isopropylidenehydrazinothiazole [Test compound 27]” was tested, and the “IC50” value was 3.1.
For “5-(4-Benzyloxybenzyl)-2-isopropylidenehydrazonothiazolidin-4-one [Test compound 12]”, the “IC50” value was 4.4.
For “5-(N-carboxymethylcarbamoylmethyl)-2-isopropylidenehydrazonothiazolidin-4- one [Test compound 47]”, the “IC50” value was 1.7.
“5-(N-ethoxycarbonylmethylcarbamoylmethyl)-2-isopropylidenehydrazonothiazolidin-4-one [Test compound 19]” was tested, and the “IC50” value was 2.5.
For “5-(N-isopropylcarbamoylmethyl)-2-isopropylidenehydrazonothiazolidin-4-one [Test compound 31]”, the “IC50” value was 0.6.
In the case of “5-[N-(1-carboxy-3-methylbutyl)carbamoylmethyl]-2-isopropylidenehydrazonothiazolidin-4-one [Test compound 103]”, the “IC50” value was 1.7.
“5-[N-(1-ethoxycarbonyl-3-methylbutyl)carbamoylmethyl]-2-isopropylidenehydrazonothiazolidin-4-one [Test compound 97]” was tested, and the “IC50” value was 2.3.
For “5-[N-(2-carboxy-4-methylphenyl)carbamoylmethyl]-2-isopropylidenehydrazonothiazolidin-4-one [Test compound 54]”, the “IC50” value was 4.2.
In the case of “5-[N-(2-carboxymethylphenyl)carbamoylmethyl]-2-isopropylidenehydrazonothiazolidin-4-one [Test compound 108]”, the “IC50” value was 3.2.
In the case of “5-[N-(2-carboxyphenyl)carbamoylmethyl]-2-isopropylidenehydrazonothiazolidin-4-one [Test compound 92]”, the “IC50” value was 0.94.
With “5-[N-(3-ethoxycarbonylphenyl)carbamoylmethyl]-2-isopropylidenehydrazonothiazolidin-4-one [Test compound 105]” the “IC50” value was 4.2.
In the case of “5-[N-(4-bromophenyl)carbamoylmethyl]-2-isopropylidenehydrazonothiazolidin- 4-one [Test compound 56]”, the “IC50” value was 10.2.
With “5-[N-(4-carboxyphenyl)carbamoylmethyl]-2-isopropylidenehydrazonothiazolidin-4-one [Test compound 16]” the “IC50” value was 3.1.
For “5-[N-(5-carboxy-2-methylphenyl)carbamoylmethyl]-2-isopropylidenehydrazonothiazolidin-4-one [Test compound 91]”, the “IC50” value was 1.6.
“5-{N-[1-carboxy-2-(4-benzyloxyphenyl)ethyl]carbamoylmethyl}-2-isopropylidenehydrazonothiazolidin-4-one [Test compound 101]” was tested, and the “IC50” value was 1.5.
`CC(C)=NN=C1NC(=O)C(Cc2ccc(OCc3ccccc3)cc2)N1` (stereo not shown) [Test compound 1, 5-(4-Benzyloxybenzyl)-2-isopropylidenehydrazonoimidazolidin-4-one] was tested, and the “IC50” value was 3.6.
In the case of `CC(C)=NN=C1NC(=O)C(C)N1` (stereo not shown) [Test compound 2, 2-Isopropylidenehydrazono-5-methylimidazolidin-4-one], the “IC50” value was 2.8.
In the case of `CC(C)=NN=C1NC(=O)C(Cc2ccccc2)N1` (stereo not shown) [Test compound 3, 5-Benzyl-2-isopropylidenehydrazonoimidazolidin-4-one], the “IC50” value was 1.6.
`CC(C)=NN=C1NC(=O)C(Cc2ccc(O)cc2)N1` (stereo not shown) [Test compound 4, 5-(4-Hydroxybenzyl)-2-isopropylidenehydrazonoimidazolidin-4-one] was tested, and the “IC50” value was 4.8.
In the case of `CC(C)=NN=C1NC(=O)C(Cc2ccc(OCc3c(Cl)cccc3Cl)cc2)N1` (stereo not shown) [Test compound 5, 5-[4-(2,6-Dichlorobenzyloxy)benzyl]-2-isopropylidenehydrazonoimidazolidin-4-one], the “IC50” value was 8.0.
In the case of `CC(C)=NN=C1NC(=O)C(Cc2ccc(OCc3ccc(Cl)cc3)cc2)N1` (stereo not shown) [Test compound 6, 5-[4-(4-Chlorobenzyloxy)benzyl]-2-isopropylidenehydrazonoimidazolidin-4-one], the “IC50” value was 8.3.
`CC(C)=NN=C1NC(=O)C(c2ccc(O)cc2)N1` (stereo not shown) [Test compound 7, 5-(4-Hydroxyphenyl)-2-isopropylidenehydrazonoimidazolidin-4-one] was tested, and the “IC50” value was 1.1.
With `CC(C)=NN=C1NC(Cc2ccc(O)cc2)C(=O)N1Cc1ccccc1` (stereo not shown) [Test compound 9, 3-Benzyl-5-(4-hydroxybenzyl)-2-isopropylidenehydrazonoimidazolidin-4-one] the “IC50” value was 1.3.
For `CC(C)=NN=C1NC(=O)C(Cc2ccc(Sc3ccccc3)cc2)N1` (stereo not shown) [Test compound 10, 2-Isopropylidenehydrazono-5-(4-phenylthiobenzyl)imidazolidin-4-one], the “IC50” value was 5.4.
With `CSc1ccc(CC2SC(=NN=C(C)C)NC2=O)cc1` (stereo not shown) [Test compound 11, 2-isopropylidenehydrazono-5-(4-methylthiobenzyl)thiazolidin-4-one] the “IC50” value was 1.2.
`CCOC(=O)c1ccc(NC(=O)CC2SC(=NN=C(C)C)NC2=O)cc1` (stereo not shown) [Test compound 15, 5-[N-(4-ethoxycarbonylphenyl)carbamoylmethyl]-2-isopropylidenehydrazonothiazolidin-4-one] was tested, and the “IC50” value was 1.2.
`CC(C)=NN=C1NC(=O)C(CC(=O)NC2CCCCC2)S1` (stereo not shown) [Test compound 18, 5-(N-cyclohexylcarbamoylmethyl)-2-isopropylidenehydrazonothiazolidin-4-one] was tested, and the “IC50” value was 1.5.
`CCOC(=O)CN1C(=O)C(CC(=O)O)SC1=NN=C(C)C` (stereo not shown) [Test compound 20, 5-Carboxymethyl-3-ethoxycarbonylmethyl-2-isopropylidenehydrazonothiazolidin-4-one] was tested, and the “IC50” value was 3.0.
For `O=C1CN2C(=NN1)NC(=O)C2COCc1ccccc1` (stereo not shown) [Test compound 29, 9-Benzyloxymethyl-1,4,5,7-tetraazabicyclo[4.3.0]nonan-5-ene-3,8-dione], the “IC50” value was 0.6.
`CC(C)=NN=C1NC(=O)C(CC(=O)NCc2ccccc2)S1` (stereo not shown) [Test compound 30, 5-(N-Benzylcarbamoylmethyl)-2-isopropylidenehydrazonothiazolidin-4-one] was tested, and the “IC50” value was 3.5.
